Test results from ChEMBL document CHEMBL4052698, “Design, synthesis and SAR of a novel series of heterocyclic phenylpropanoic acids as GPR120 agonists” (Bioorg Med Chem Lett, 2017).
Calls of active or inactive are those of the source. The calls are words filed in the database; no cut-off is given here.

What was measured:
[1] = Stability in mouse liver microsomes assessed as parent compound remaining after 10 mins; format: ADME, microsome; conditions: read-out: Stability
[2] = biological target: T1, Free fatty acid receptor 4 (Homo sapiens, UniProt Q5NUL3); assay: Agonist activity at human GPR120 expressed in CHO-K1 cells assessed as […] by DiscoveRx PathHunter beta-arrestin assay; format: functional, cell-based
T1 sequence (Q5NUL3 whole entry): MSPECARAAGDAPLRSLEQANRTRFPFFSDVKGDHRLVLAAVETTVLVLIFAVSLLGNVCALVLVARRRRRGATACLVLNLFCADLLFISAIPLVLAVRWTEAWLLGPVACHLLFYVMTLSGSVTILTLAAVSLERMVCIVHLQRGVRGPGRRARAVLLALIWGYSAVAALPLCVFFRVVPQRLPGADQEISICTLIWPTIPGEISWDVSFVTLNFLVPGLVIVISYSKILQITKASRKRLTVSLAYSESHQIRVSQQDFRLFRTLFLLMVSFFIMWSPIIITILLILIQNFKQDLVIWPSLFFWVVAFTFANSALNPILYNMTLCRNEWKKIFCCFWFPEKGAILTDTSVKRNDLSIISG

[3] = biological target: Free fatty acid receptor 4 (Homo sapiens, UniProt Q5NUL3); assay: Agonist activity at human GPR120 short splice variant expressed in HEK293 cells assessed as increase in intracellular calcium flux by Fluo-4 NW dye based FLIPR assay; format: functional, cell-based
[4] = Stability in rat liver microsomes assessed as parent compound remaining after 10 mins; format: ADME, microsome; conditions: read-out: Stability
[5] = Stability in human liver microsomes assessed as parent compound remaining after 10 mins; format: ADME, microsome; conditions: read-out: Stability
[6] = (§1) Oral bioavailability in C57/black 6J mouse at 20 mg/kg by LC-MS/MS method; format: ADME, organism-based; conditions: C57/black 6J, in vivo
[7] = AUClast in C57/black 6J mouse at 20 mg/kg dosed as oral gavage by LC-MS/MS method; format: ADME, organism-based; parameters: dose 20 mg/kg, route oral, time 0 - last; conditions: in vivo
[8] = Clearance in C57/black 6J mouse at 5 mg/kg, iv by LC-MS/MS method; format: ADME, organism-based; conditions: in vivo
Mus musculus [9] = assay: Antidiabetic activity in C57bl/6J mouse assessed as reduction in blood glucose delta AUC level at 10 mg/kg, po dosed 30 mins before glucose challenge and measured 90 mins post glucose injection by intraperitoneal glucose tolerance test; format: functional; parameters: scale not given: the % may be the effect or the level left
[10] = Cmax in C57/black 6J mouse at 20 mg/kg dosed as oral gavage by LC-MS/MS method; format: ADME, organism-based; parameters: dose 20 mg/kg, route oral; conditions: in vivo
Mus musculus [11] = assay: Antidiabetic activity in C57bl/6J mouse assessed as reduction in blood glucose level at 1 to 10 mg/kg, po dosed 30 mins before glucose challenge by intraperitoneal glucose tolerance test; format: functional, organism-based
[12] = Protein binding in mouse plasma; format: ADME, cell-free; conditions: read-out: PPB (converted)
[13] = Protein binding in rat plasma; format: ADME, cell-free; conditions: read-out: PPB (converted)
[14] = Protein binding in human plasma; format: ADME, cell-free; conditions: read-out: PPB (converted)
[15] = Half life in C57/black 6J mouse at 20 mg/kg dosed as oral gavage by LC-MS/MS method; format: ADME, organism-based; conditions: in vivo
Mus musculus [16] = assay: Antidiabetic activity in C57bl/6J mouse assessed as reduction in blood glucose delta AUC level at 1 mg/kg, po dosed 30 mins before glucose challenge and measured 90 mins post glucose injection by intraperitoneal glucose tolerance test; format: functional; parameters: scale not given: the % may be the effect or the level left
Mus musculus [17] = assay: Antidiabetic activity in C57bl/6J mouse assessed as reduction in blood glucose delta AUC level at 3 mg/kg, po dosed 30 mins before glucose challenge and measured 90 mins post glucose injection by intraperitoneal glucose tolerance test; format: functional; parameters: scale not given: the % may be the effect or the level left
Mus musculus [18] = assay: Antidiabetic activity in C57bl/6J mouse assessed as reduction in blood glucose delta AUC level at 1 to 10 mg/kg, po dosed 30 mins before glucose challenge by intraperitoneal glucose tolerance test; format: functional, organism-based
[19] = Volume of distribution at steady state in C57/black 6J mouse at 5 mg/kg, iv by LC-MS/MS method; format: ADME, organism-based; conditions: in vivo, read-out: Vdss
Mus musculus [20] = assay: Antidiabetic activity in C57bl/6J mouse assessed as reduction in blood glucose level at 10 mg/kg, po dosed 30 mins before glucose challenge by intraperitoneal glucose tolerance test; format: functional, organism-based
Mus musculus [21] = assay: as §1; format: ADME, organism-based; conditions: in vivo

O=C(O)CCc1ccc(OCc2c(-c3ccc(Cl)cc3)noc2C(F)(F)F)c(F)c1F
remaining at 10 min [1]: 109%
EC50 [2]: 140 nM
EC50 [3]: 670 nM
remaining at 10 min [4]: 106%
remaining at 10 min [5]: 99.6%

Cc1c(CCC(=O)O)ccc(OCc2ncoc2-c2ccc(Cl)cc2)c1C
EC50 [3]: 1750 nM

CCCc1onc(-c2ccc(Cl)cc2)c1COc1ccc(CCC(=O)O)c(C)c1C
remaining at 10 min [1]: 48.3%
EC50 [2]: 130 nM
EC50 [3]: 1060 nM
remaining at 10 min [4]: 38.4%
remaining at 10 min [5]: 79.3%

O=C(O)CCc1cc(F)c(OCc2c(-c3ccc(Br)cc3)noc2C(F)(F)F)c(F)c1
remaining at 10 min [1]: 94.1%
EC50 [3]: 120 nM
remaining at 10 min [4]: 72.3%
remaining at 10 min [5]: 105%

Cc1c(CCC(=O)O)ccc(OCc2conc2-c2ccc(Cl)cc2)c1C
EC50 [2]: 2760 nM
EC50 [3]: 1440 nM

CCc1ccc(-n2cccc2COc2ccc(CCC(=O)O)c(C)c2C)cc1
EC50 [2]: 750 nM
EC50 [3]: 100 nM

Cc1c(CCC(=O)O)ccc(OCc2cnnn2-c2ccc(Cl)cc2)c1C
EC50 [3]: > 5000 nM

CCc1ccc(-c2noc(C(F)(F)F)c2COc2c(F)cc(CCC(=O)O)cc2F)cc1
bioavailability [6]: 78.7%
AUC(0-t) [7]: 9660 ng·h/mL
clearance [8]: 27.1 mL/min/kg
Activity (Mus musculus [9]): -54%
Cmax [10]: 7670 ng/mL
EC50 [2]: 60 nM
EC50 [3]: 57 nM
Activity (Mus musculus [11]): Dose-dependent effect
fraction unbound [12]: 0.0008
fraction unbound [13]: 0.0011
fraction unbound [14]: 0.0006
half-life [15]: 1.03 h
Activity (Mus musculus [16]): 30%
Activity (Mus musculus [17]): -35%
Activity (Mus musculus [18]): Dose-dependent effect
Vd [19]: 0.898 L/kg

O=C(O)CCc1cc(F)c(OCc2c(-c3ccc(F)cc3Cl)noc2C(F)(F)F)c(F)c1
remaining at 10 min [1]: 99.3%
EC50 [2]: 290 nM
EC50 [3]: 71 nM
remaining at 10 min [4]: 92%
remaining at 10 min [5]: 108%

CCc1ccc(-c2sncc2COc2ccc(CCC(=O)O)c(C)c2C)cc1
EC50 [3]: 190 nM

O=C(O)CCc1cc(F)c(OCc2c(-c3ccc(Cl)cc3)noc2C(F)(F)F)c(F)c1
bioavailability [6]: 93%
AUC(0-t) [7]: 43200 ng·h/mL
clearance [8]: 7.18 mL/min/kg
remaining at 10 min [1]: 105%
Activity (Mus musculus [9]): -56%
Cmax [10]: 12700 ng/mL
EC50 [2]: 160 nM
EC50 [3]: 71 nM
fraction unbound [12]: 0.0014
fraction unbound [13]: 0.0019
fraction unbound [14]: 0.0007
half-life [15]: 2.07 h
Activity (Mus musculus [16]): 20%
Activity (Mus musculus [17]): 23%
remaining at 10 min [4]: 98.9%
Vd [19]: 1.26 L/kg
Activity (Mus musculus [20]): Active
remaining at 10 min [5]: 113%

Cc1c(CCC(=O)O)ccc(OCc2nnnn2-c2ccc(Cl)cc2)c1C
EC50 [3]: > 5000 nM

Cc1c(CCC(=O)O)ccc(OCc2cccn2-c2ccc(Cl)cc2)c1C
EC50 [2]: 930 nM
EC50 [3]: 145 nM

COc1ccc(-c2noc(C(F)(F)F)c2COc2c(F)cc(CCC(=O)O)cc2F)cc1
EC50 [3]: 1130 nM

Cc1onc(-c2ccc(Cl)cc2)c1COc1ccc(CCC(=O)O)c(C)c1C
EC50 [2]: 760 nM
EC50 [3]: 270 nM

CCc1ccc(-c2cscc2COc2ccc(CCC(=O)O)c(C)c2C)cc1
EC50 [3]: 142 nM

Cc1c(CCC(=O)O)ccc(OCc2scnc2-c2ccc(Cl)cc2)c1C
EC50 [3]: 81 nM

O=C(O)CCc1cc(F)c(OCc2c(-c3ccc(C(F)(F)F)cc3)noc2C(F)(F)F)c(F)c1
EC50 [2]: 190 nM
EC50 [3]: 340 nM

O=C(O)CCc1cc(F)c(OCc2c(-c3ccc(F)cc3)noc2C(F)(F)F)c(F)c1
remaining at 10 min [1]: 119%
EC50 [2]: 230 nM
EC50 [3]: 150 nM
remaining at 10 min [4]: 66.2%
remaining at 10 min [5]: 103%

Cc1c(CCC(=O)O)ccc(OCc2ccnn2-c2ccc(Cl)cc2)c1C
EC50 [2]: 2030 nM
EC50 [3]: 610 nM

CCc1ccc(-c2ccsc2COc2ccc(CCC(=O)O)c(C)c2C)cc1
EC50 [2]: 900 nM
EC50 [3]: 160 nM

CCc1onc(-c2ccc(Cl)cc2)c1COc1ccc(CCC(=O)O)c(C)c1C
remaining at 10 min [1]: 50.2%
EC50 [2]: 400 nM
EC50 [3]: 740 nM
remaining at 10 min [4]: 45.6%
remaining at 10 min [5]: 66.3%

Cc1c(CCC(=O)O)ccc(OCc2c(-c3ccc(Cl)cc3)noc2C(F)(F)F)c1C
remaining at 10 min [1]: 91.2%
EC50 [2]: 160 nM
EC50 [3]: 680 nM
remaining at 10 min [4]: 68%
remaining at 10 min [5]: 80.9%

Cc1cc(OCc2c(-c3ccc(Cl)cc3)noc2C(F)(F)F)c(F)cc1CCC(=O)O
EC50 [3]: 410 nM

Cc1c(CCC(=O)O)ccc(OCc2nccn2-c2ccc(Cl)cc2)c1C
EC50 [3]: > 5000 nM

Cc1c(CCC(=O)O)ccc(OCc2csnc2-c2ccc(Cl)cc2)c1C
EC50 [3]: 217 nM

Cc1c(CCC(=O)O)ccc(OCc2ccccc2-c2ccc(Cl)cc2)c1C
EC50 [3]: 220 nM

Cc1c(CCC(=O)O)ccc(OCc2c(-c3ccc(Cl)cc3)noc2-c2ccccc2)c1C
EC50 [3]: 2830 nM

O=C(O)CCc1ccc(OCc2c(-c3ccccc3)noc2C(F)(F)F)cc1
EC50 [3]: 150 nM

O=C(O)CCc1ccc(OCc2c(-c3ccc(Cl)cc3)noc2C(F)(F)F)cc1C(F)(F)F
EC50 [3]: 1450 nM

Cc1noc(-c2ccc(Cl)cc2)c1COc1ccc(CCC(=O)O)c(C)c1C
EC50 [2]: 810 nM
EC50 [3]: 350 nM

Cc1ccc(-c2noc(C(F)(F)F)c2COc2c(F)cc(CC(C)C(=O)O)cc2F)cc1 (centres undefined)
remaining at 10 min [1]: 86.3%
EC50 [2]: 160 nM
EC50 [3]: 110 nM
remaining at 10 min [4]: 54.3%
remaining at 10 min [5]: 93%

Cc1c(CCC(=O)O)ccc(OCc2c(-c3ccc(Cl)cc3)noc2C2CC2)c1C
EC50 [2]: 1090 nM
EC50 [3]: 1070 nM

Cc1ccc(-c2noc(C(F)(F)F)c2COc2c(F)cc(CCC(=O)O)cc2F)cc1
remaining at 10 min [1]: 84.5%
EC50 [2]: 180 nM
EC50 [3]: 120 nM
remaining at 10 min [4]: 37.9%
remaining at 10 min [5]: 64.4%

O=C(O)CCc1cc(F)c(OCc2c(-c3ccccc3)noc2C(F)(F)F)c(F)c1
F (Mus musculus [21]): 49.5%
remaining at 10 min [1]: 93%
EC50 [2]: 69 nM
EC50 [3]: 170 nM
fraction unbound [12]: 0.0047
fraction unbound [13]: 0.0122
fraction unbound [14]: 0.0017
half-life [15]: 2.58 h
remaining at 10 min [4]: 110%
Vd [19]: 0.336 L/kg
remaining at 10 min [5]: 95.6%

CCc1ccc(-n2nccc2COc2ccc(CCC(=O)O)c(C)c2C)cc1
EC50 [2]: 1150 nM
EC50 [3]: 520 nM

O=C(O)CCc1cc(F)c(OCc2c(-c3ccc(C4CC4)cc3)noc2C(F)(F)F)c(F)c1
EC50 [3]: 170 nM
